Experimental data as given in PubChem BioAssay AID1259407 (Chemical Carcinogenesis Research Information System (CCRIS), 2018).
The source made the active and inactive calls. No rule for the calls is given here.

Test system: CCRIS mutagenicity, Ames/micronucleus/aberration tests
Assay: CCRIS mutagenicity studies

Measured: mutagenic call

C=CC(=O)NCO
inactive: Test System: AMES SALMONELLA TYPHIMURIUM, Strain/Indicator: TA97, Metabolic Activation: HAMSTER, LIVER, S-9, AROCLOR 1254 (10%), Method: PREINCUBATION inactive; negative | Test System: AMES SALMONELLA TYPHIMURIUM, Strain/Indicator: TA97, Metabolic Activation: HAMSTER, LIVER, S-9, AROCLOR 1254 (10 OR 30%), Method: PREINCUBATION inactive; negative | Test System: AMES SALMONELLA TYPHIMURIUM, Strain/Indicator: TA97, Metabolic Activation: HAMSTER, LIVER, S-9, AROCLOR 1254 (30%), Method: PREINCUBATION inactive; negative | Test System: AMES SALMONELLA TYPHIMURIUM, Strain/Indicator: TA97, Metabolic Activation: NONE, Method: PREINCUBATION inactive; negative | Test System: AMES SALMONELLA TYPHIMURIUM, Strain/Indicator: TA97, Metabolic Activation: RAT, LIVER, S-9, AROCLOR 1254 (10% OR 30%), Method: PREINCUBATION inactive; negative | Test System: AMES SALMONELLA TYPHIMURIUM, Strain/Indicator: TA97, Metabolic Activation: RAT, LIVER, S-9, AROCLOR 1254 (10 OR 30%), Method: PREINCUBATION inactive; negative | Test System: AMES SALMONELLA TYPHIMURIUM, Strain/Indicator: TA98, Metabolic Activation: HAMSTER, LIVER, S-9, AROCLOR 1254 (10% OR 30%), Method: PREINCUBATION inactive; negative | Test System: AMES SALMONELLA TYPHIMURIUM, Strain/Indicator: TA98, Metabolic Activation: HAMSTER, LIVER, S-9, AROCLOR 1254 (10 OR 30%), Method: PREINCUBATION inactive; negative | Test System: AMES SALMONELLA TYPHIMURIUM, Strain/Indicator: TA98, Metabolic Activation: NONE, Method: PREINCUBATION inactive; negative | Test System: AMES SALMONELLA TYPHIMURIUM, Strain/Indicator: TA98, Metabolic Activation: RAT, LIVER, S-9, AROCLOR 1254 (10% OR 30%), Method: PREINCUBATION inactive; negative | Test System: AMES SALMONELLA TYPHIMURIUM, Strain/Indicator: TA98, Metabolic Activation: RAT, LIVER, S-9, AROCLOR 1254 (10 OR 30%), Method: PREINCUBATION inactive; negative | Test System: AMES SALMONELLA TYPHIMURIUM, Strain/Indicator: TA98, Metabolic Activation: RAT, LIVER, S-9, PHENOBARBITAL AND BETA-NAPHTHOFLAVONE, Method: PREINCUBATION inactive; negative | Test System: AMES SALMONELLA TYPHIMURIUM, Strain/Indicator: TA100, Metabolic Activation: HAMSTER, LIVER, S-9, AROCLOR 1254 (10% OR 30%), Method: PREINCUBATION inactive; negative | Test System: AMES SALMONELLA TYPHIMURIUM, Strain/Indicator: TA100, Metabolic Activation: HAMSTER, LIVER, S-9, AROCLOR 1254 (10 OR 30%), Method: PREINCUBATION inactive; negative | Test System: AMES SALMONELLA TYPHIMURIUM, Strain/Indicator: TA100, Metabolic Activation: NONE, Method: PREINCUBATION inactive; negative | Test System: AMES SALMONELLA TYPHIMURIUM, Strain/Indicator: TA100, Metabolic Activation: RAT, LIVER, S-9, AROCLOR 1254 (10% OR 30%), Method: PREINCUBATION inactive; negative | Test System: AMES SALMONELLA TYPHIMURIUM, Strain/Indicator: TA100, Metabolic Activation: RAT, LIVER, S-9, AROCLOR 1254 (10 OR 30%), Method: PREINCUBATION inactive; negative | Test System: AMES SALMONELLA TYPHIMURIUM, Strain/Indicator: TA100, Metabolic Activation: RAT, LIVER, S-9, PHENOBARBITAL AND BETA-NAPHTHOFLAVONE, Method: PREINCUBATION inactive; negative | Test System: AMES SALMONELLA TYPHIMURIUM, Strain/Indicator: TA102, Metabolic Activation: NONE, Method: PREINCUBATION inactive; negative | Test System: AMES SALMONELLA TYPHIMURIUM, Strain/Indicator: TA102, Metabolic Activation: RAT, LIVER, S-9, PHENOBARBITAL AND BETA-NAPHTHOFLAVONE, Method: PREINCUBATION inactive; negative | Test System: AMES SALMONELLA TYPHIMURIUM, Strain/Indicator: TA104, Metabolic Activation: NONE, Method: PREINCUBATION inactive; negative | Test System: AMES SALMONELLA TYPHIMURIUM, Strain/Indicator: TA104, Metabolic Activation: RAT, LIVER, S-9, PHENOBARBITAL AND BETA-NAPHTHOFLAVONE, Method: PREINCUBATION inactive; negative | Test System: AMES SALMONELLA TYPHIMURIUM, Strain/Indicator: TA1535, Metabolic Activation: HAMSTER, LIVER, S-9, AROCLOR 1254 (10% OR 30%), Method: PREINCUBATION inactive; negative | Test System: AMES SALMONELLA TYPHIMURIUM, Strain/Indicator: TA1535, Metabolic Activation: HAMSTER, LIVER, S-9, AROCLOR 1254 (10 OR 30%), Method: PREINCUBATION inactive; negative | Test System: AMES SALMONELLA TYPHIMURIUM, Strain/Indicator: TA1535, Metabolic Activation: NONE, Method: PREINCUBATION inactive; negative | Test System: AMES SALMONELLA TYPHIMURIUM, Strain/Indicator: TA1535, Metabolic Activation: RAT, LIVER, S-9, AROCLOR 1254 (10% OR 30%), Method: PREINCUBATION inactive; negative | Test System: AMES SALMONELLA TYPHIMURIUM, Strain/Indicator: TA1535, Metabolic Activation: RAT, LIVER, S-9, AROCLOR 1254 (10 OR 30%), Method: PREINCUBATION inactive; negative | Test System: AMES SALMONELLA TYPHIMURIUM, Strain/Indicator: TA1535, Metabolic Activation: RAT, LIVER, S-9, PHENOBARBITAL AND BETA-NAPHTHOFLAVONE, Method: PREINCUBATION inactive; negative | Test System: AMES SALMONELLA TYPHIMURIUM, Strain/Indicator: TA1537, Metabolic Activation: NONE, Method: PREINCUBATION inactive; negative | Test System: AMES SALMONELLA TYPHIMURIUM, Strain/Indicator: TA1537, Metabolic Activation: RAT, LIVER, S-9, PHENOBARBITAL AND BETA-NAPHTHOFLAVONE, Method: PREINCUBATION inactive; negative | Test System: E. COLI, Strain/Indicator: WP2UVRA/PKM101, Metabolic Activation: NONE, Method: PREINCUBATION inactive; negative | Test System: E. COLI, Strain/Indicator: WP2UVRA/PKM101, Metabolic Activation: RAT, LIVER, S-9, PHENOBARBITAL AND BETA-NAPHTHOFLAVONE, Method: PREINCUBATION inactive; negative | Test System: E. COLI, Strain/Indicator: WP2UVRA, Metabolic Activation: NONE, Method: PREINCUBATION inactive; negative | Test System: E. COLI, Strain/Indicator: WP2UVRA, Metabolic Activation: RAT, LIVER, S-9, PHENOBARBITAL AND BETA-NAPHTHOFLAVONE, Method: PREINCUBATION inactive; negative

C
inactive: End Point: In vitro chromosomal aberrations, Test System: Chinese hamster V79 lung fibroblast cells, Metabolic Activation: Rat, Liver, S9, Aroclor 1254 inactive; negative. material tested was baytubes, multi-walled carbon-nanotubes. | Test System: Ames Salmonella typhimurium, Strain/Indicator: TA98, Metabolic Activation: None, Method: Preincubation inactive; negative. material tested was baytubes, multi-walled carbon-nanotubes. | Test System: Ames Salmonella typhimurium, Strain/Indicator: TA98, Metabolic Activation: Rat, Liver, S9, Aroclor 1254, Method: Preincubation inactive; negative. material tested was baytubes, multi-walled carbon-nanotubes. | Test System: Ames Salmonella typhimurium, Strain/Indicator: TA100, Metabolic Activation: None, Method: Preincubation inactive; negative. material tested was baytubes, multi-walled carbon-nanotubes. | Test System: Ames Salmonella typhimurium, Strain/Indicator: TA100, Metabolic Activation: Rat, Liver, S9, Aroclor 1254, Method: Preincubation inactive; negative. material tested was baytubes, multi-walled carbon-nanotubes. | Test System: Ames Salmonella typhimurium, Strain/Indicator: TA102, Metabolic Activation: None, Method: Preincubation inactive; negative. material tested was baytubes, multi-walled carbon-nanotubes. | Test System: Ames Salmonella typhimurium, Strain/Indicator: TA102, Metabolic Activation: Rat, Liver, S9, Aroclor 1254, Method: Preincubation inactive; negative. material tested was baytubes, multi-walled carbon-nanotubes. | Test System: Ames Salmonella typhimurium, Strain/Indicator: TA1535, Metabolic Activation: None, Method: Preincubation inactive; negative. material tested was baytubes, multi-walled carbon-nanotubes. | Test System: Ames Salmonella typhimurium, Strain/Indicator: TA1535, Metabolic Activation: Rat, Liver, S9, Aroclor 1254, Method: Preincubation inactive; negative. material tested was baytubes, multi-walled carbon-nanotubes. | Test System: Ames Salmonella typhimurium, Strain/Indicator: TA1537, Metabolic Activation: None, Method: Preincubation inactive; negative. material tested was baytubes, multi-walled carbon-nanotubes. | Test System: Ames Salmonella typhimurium, Strain/Indicator: TA1537, Metabolic Activation: Rat, Liver, S9, Aroclor 1254, Method: Preincubation inactive; negative. material tested was baytubes, multi-walled carbon-nanotubes.
